ChEMBL document CHEMBL1201862, “PubChem BioAssay data set” (2004)
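1) Cells in 96-well plates. 2) Compound, 48 h, 5 concentrations. 3) Linear interpolation between surrounding doses. 4) Unreached endpoint = highest concentration. Here, GI50 denotes the concentration required for 50% inhibition of growth.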 Calls of active or inactive are those of the source. Cut-off read from the data, not from the text of the source: active = GI50 up to about 1.1 µM and inactive = higher.

Tests used:
Test in all cases: growth of human tumour cells (NCI), 48 h
A498 = test system: A498
CAKI-1 = test system: CAKI-1
CCRF-CEM = test system: CCRF-CEM
COLO 205 = test system: COLO 205
DU-145 = test system: DU-145
HCT-116 = test system: HCT-116
HCT-15 = test system: HCT-15
HL-60 = test system: HL-60
HOP-62 = test system: HOP-62
HOP-92 = test system: HOP-92
HT-29 = test system: HT-29
Hs-578T = test system: Hs-578T
IGROV-1 = test system: IGROV-1
K562 = test system: K562
KM12 = test system: KM12
M14 = test system: M14
MDA-MB-231 = test system: MDA-MB-231
MDA-MB-435 = test system: MDA-MB-435
MDA-N = test system: MDA-N
MOLT-4 = test system: MOLT-4
Malme-3M = test system: Malme-3M
NCI-H23 = test system: NCI-H23
NCI-H460 = test system: NCI-H460
NCI-H522 = test system: NCI-H522
NCI/ADR-RES = test system: NCI/ADR-RES
OVCAR-3 = test system: OVCAR-3
OVCAR-8 = test system: OVCAR-8
PC-3 = test system: PC-3
RPMI-8226 = test system: RPMI-8226
SF-295 = test system: SF-295
SK-MEL-28 = test system: SK-MEL-28
SK-MEL-2 = test system: SK-MEL-2
SK-MEL-5 = test system: SK-MEL-5
SK-OV-3 = test system: SK-OV-3
SN12C = test system: SN12C
SNB-75 = test system: SNB-75
SR = test system: SR
T47D = test system: T47D
U-251 = test system: U-251
UACC-62 = test system: UACC-62

C1=C(N2CCOCC2)/C(=C2\SC(=N/c3ccccc3)/C(=N\c3ccccc3)N2c2ccccc2)CC1
GI50 (A498): 94.4 µM (inactive) | GI50 (CAKI-1): 51.8 µM (inactive) | GI50 (CCRF-CEM): 19.7 µM (inactive) | GI50 (COLO 205): > 100 µM (inactive) | GI50 (DU-145): > 100 µM (inactive) | GI50 (HCT-116): > 100 µM (inactive) | GI50 (HCT-15): > 100 µM | GI50 (HL-60): > 10 µM (inactive) | GI50 (HOP-62): 28.9 µM (inactive) | GI50 (HOP-92): 34.8 µM (inactive) | GI50 (HT-29): > 100 µM (inactive) | GI50 (Hs-578T): 26.8 µM (inactive) | GI50 (IGROV-1): > 100 µM (inactive) | GI50 (K562): > 100 µM (inactive) | GI50 (KM12): > 100 µM (inactive) | GI50 (M14): 38.2 µM (inactive) | GI50 (MDA-MB-231): 61.5 µM (inactive) | GI50 (MDA-MB-435): > 100 µM (inactive) | GI50 (MDA-N): > 100 µM (inactive) | GI50 (MOLT-4): 20.9 µM (inactive) | GI50 (Malme-3M): > 100 µM (inactive) | GI50 (NCI-H23): > 100 µM (inactive) | GI50 (NCI-H460): > 100 µM (inactive) | GI50 (NCI-H522): 29 µM (inactive) | GI50 (NCI/ADR-RES): > 100 µM (inactive) | GI50 (OVCAR-3): 52.4 µM (inactive) | GI50 (OVCAR-8): 62.5 µM (inactive) | GI50 (PC-3): > 100 µM (inactive) | GI50 (RPMI-8226): > 100 µM (inactive) | GI50 (SF-295): 49.2 µM (inactive) | GI50 (SK-MEL-28): 75.2 µM (inactive) | GI50 (SK-MEL-2): 89.3 µM (inactive) | GI50 (SK-MEL-5): > 100 µM (inactive) | GI50 (SK-OV-3): 34.1 µM (inactive) | GI50 (SN12C): > 100 µM (inactive) | GI50 (SNB-75): 23.1 µM (inactive) | GI50 (SR): 67.5 µM (inactive) | GI50 (T47D): > 100 µM (inactive) | GI50 (U-251): 68.4 µM (inactive) | GI50 (UACC-62): 18.7 µM (inactive)
